pIC50: −log10 of the molar value. “Also recorded” adds a separate entry of the source. Where two headings read alike, the source gives them in different places. Marks after values point to notes of the source that are not given here.

The text below walks through data of patent US10472326B2, “PQSR modulators” (HELMHOLTZ-ZENTRUM FÜR INFEKTIONSFORSCHUNG GMBH, priority 2014, dated 2019).

Data set [1] relates to P. aeruginosa PA14. As to conditions: in cellulo; ref. [20]; strain not given; read-out: IC50, inhibition of virulence factor pyocyanin production; cited from earlier work.
Data set [2] relates to P. aeruginosa PA14. The settings on record: strain not given, cited from earlier work.
Data set [3] deals with Pseudomonas aeruginosa. As to conditions: cited from earlier work.
A further data set has as its system P. aeruginosa biofilm. As to conditions: background statement; cited from earlier work.
For data set [4], the system named is P. aeruginosa infection. As to conditions: cited from earlier work.
For data set [5], the system named is P. aeruginosa infection. The settings on record: cited from earlier work. This is another data set of the same source.
A further data set concerns the target T1, PqsR (Pseudomonas aeruginosa, UniProt Q9I4X0).
T1 construct: expressed in transfected cells; host or cells: E. coli DH5α carrying plasmid pEAL08-2
The data set can be described thus: cell-based. The settings on record: read-out: Inhibition of PqsR stimulation induced by 50 nM PQS in the presence of test compd. (full inhibition = 1.00). How it is done: The ability of the compounds to either stimulate or antagonize the PqsR-dependent transcription was analysed as previously described using a β-galactosidase reporter gene assay in E. coli expressing PqsR. Briefly, a culture of E. coli DH5α cells containing the plasmid pEAL08-2, which encodes PqsR under the control of the tac promoter and the β-galactosidase reporter gene lacZ controlled by the pqsA promoter, were co-incubated with test compound. Antagonistic effects of compounds were assayed in the presence of 50 nM PQS. After incubation, β-galactosidase activity was measured spectralphotometrically at OD420 nm using POLARstar Omega (BMG Labtech, Ortenberg, Germany) and expressed as percent stimulation of controls. For the determination of IC50 values, compounds were tested at least at eight different concentrations.

In data set [6] the test system is P. aeruginosa PA14. Briefly: Determination of extracellular PQS levels. The settings on record: compd. at 15 μM. It is filed as cell-based. How it is done: Quantification of PQS produced by P. aeruginosa PA14 was performed according to the method of Maurer et al.. For each sample, cultivation and sample work-up were performed in triplicates. Inhibition values of PQS formation were normalized to OD600.

Data set [7] concerns P. aeruginosa PA14. The data set can be described thus: Pyocyanin assay. The class given is cell-based. As to conditions: for Reduction of Pyocyanin: PA14. The method, then: For analysis of pyocyanin formation, cultivation procedure was the same as for HHQ determination with the exception of using PPGAS medium. Pyocyanin produced by PA14 was quantified using the method of Essar et al. with some modifications, as described in detail by Klein et al.. Briefly, 900 μL of each culture were extracted with 900 μL of chloroform and 800 μL of the organic phase re-extracted with 250 μL of 0.2 M HCl. OD520 was measured in the aqueous phase using FLUOstar Omega (BMG Labtech, Ortenberg, Germany). For each sample, cultivation and sample work-up were performed in triplicates. Inhibition values of pyocyanin formation were normalized to OD600.

Data set [8] concerns P. aeruginosa PA14. Briefly: Biofilm growth assay, PA14. It is filed as cell-based. The settings on record: added to 24 h old biofilms, final concentration 100 μM. The method, then:
Static biofilms at the bottom of 96 well microtiter plates were grown with small modifications as previously described. In brief, overnight P. aeruginosa LB cultures of PA14 were adjusted to an OD600 of 0.002 with fresh medium and transferred into a half-area 96 well μClear plate (Greiner Bio-One, 100 μL/well). The plate was covered with an air-permeable foil and incubated at 37° C. in a chamber with humid atmosphere. After 24 h, a staining solution including Syto9 and propidium iodide (LIVE/DEAD BacLight Bacterial Viability kit, Molecular Probes/Invitrogen) and the test compound solved in DMSO was added to the biofilms (final concentration 100 μM, 1% DMSO (v/v)) and biofilms were further incubated for 24 h at 37° C. After in total 48 h, biofilm stacks were acquired in the center of each well (step size: 3 μm) using an automated confocal microscope (TCS SP8, Leica Microsystems) equipped with an ×40/1.10 water objective. The acquired image stacks were processed and analyzed with a customized analysis solution for the Developer XD2 (Definiens) based on a previously described algorithm. 3D-projections of the biofilms are visualized with the software IMARIS (version 7.6.5, Bitplane).

The next data set has as its system clinical isolate MHH9639. The data set can be described thus: Biofilm growth assay, clinical isolate MHH9639. The settings on record: added to 24 h old biofilms, final concentration 100 μM. The class given is cell-based, P. aeruginosa.
The subject of data set [9] is Pseudomonas aeruginosa. As to conditions: cited from earlier work. This is another data set of the same source.

T1 sequence (Q9I4X0 whole entry): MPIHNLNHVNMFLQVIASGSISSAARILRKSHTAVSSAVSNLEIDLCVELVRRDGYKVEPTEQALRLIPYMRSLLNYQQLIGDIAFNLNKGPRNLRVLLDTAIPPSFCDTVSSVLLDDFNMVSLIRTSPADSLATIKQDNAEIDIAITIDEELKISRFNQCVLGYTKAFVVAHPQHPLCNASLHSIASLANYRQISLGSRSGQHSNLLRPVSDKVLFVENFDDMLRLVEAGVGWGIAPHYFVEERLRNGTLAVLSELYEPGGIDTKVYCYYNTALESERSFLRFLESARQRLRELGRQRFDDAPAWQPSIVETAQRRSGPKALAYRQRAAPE

Consider `CCCCCCCc1[nH]c2ccc([N+](=O)[O-])cc2c(=O)c1C(N)=O` [2-heptyl-6-nitro-4-oxo-1,4-dihydroquinoline-3-carboxamide], for which the pIC50 with P. aeruginosa PA14 [1] is 5.70. In addition, the “Reduction of PQS production” value in the data set with P. aeruginosa PA14 [2] (at 15 μM, ref. [20]) is 37%. Moreover, in the data set on Pseudomonas aeruginosa [3] (at 15 μM, ref. [20]), the “Reduction of HHQ production” value is on record as 54%. Further, the “Inhibition of biofilm formation” value in the data set with P. aeruginosa biofilm was “not being able to inhibit biofilm formation”. Also, the “Protection of larvae from lethal P. aeruginosa infection” value in the data set on P. aeruginosa infection [4] (at 22 nM corresponding to 7.3 ng g^−1 body weight, ref. [20]) is listed as “full protection”. Also, the “Toxicity in animal model” value in the data set with P. aeruginosa infection [4] (in vivo) and in the data set with P. aeruginosa infection [5] (in vivo) was “no sign of toxicity” each time. In addition, in the data set on P. aeruginosa infection [5] (ref. [20]), the “Protection of nematodes from lethal P. aeruginosa infection” value was “strong protection”.
Turning to `CCCCCCCc1[nH]c2ccc([N+](=O)[O-])cc2c(=O)c1CO` [Compound 1, 2-heptyl-3-(hydroxymethyl)-6-nitroquinolin-4(1H)-one], on PqsR, the inhibition at 0.05 µM came to 45% and the inhibition at 5 µM turned out to be 100%. Moreover, the “Reduction of PQS” value in the data set on P. aeruginosa PA14 [6] is 33%. Further, the “Reduction of Pyocyanin” value in the data set with P. aeruginosa PA14 [7] (compd. at 15 μM) is recorded as 83%.
Turning to `CCCCCCCc1[nH]c2ccc([N+](=O)[O-])cc2c(=O)c1C(=O)OCC` [Compound 2, ethyl 2-heptyl-6-nitro-4-oxo-1,4-dihydroquinoline-3-carboxylate], on PqsR, the inhibition at 0.05 µM is -8% and the inhibition at 5 µM came to 20%.
For the molecule `CCOCCCCc1[nH]c2ccc([N+](=O)[O-])cc2c(=O)c1C(=O)OCC` [Compound 3], on PqsR, the inhibition at 0.05 µM was 2% and the inhibition at 5 µM worked out at 27%.
The like results for `CCCCCCCc1[nH]c2ccccc2c(=O)c1C(=O)OCC` [Compound 4] were, in that order, 18% and 32%.
On to `CCCCCCCc1[nH]c2ccncc2c(=O)c1C(=O)OCC` [Compound 5], for which, on PqsR, the inhibition at 0.05 µM came out at 24% and the inhibition at 5 µM was determined as 76%.
As for `Nc1cccc(F)c1C(=O)O` [Compound 6FABA], the pIC50 with Pseudomonas aeruginosa [3] (PqsA inhibitor, refs [14, 16, 22], read-out: IC50, production of signal molecules HHQ and PQS) was roughly 4.00.
For `CCCCCCCc1[nH]c2ccccc2c(=O)c1CO` [Compound 6], on PqsR, the inhibition at 0.05 µM is 5% and the inhibition at 5 µM is 28%.
Take `CCCCCCCc1[nH]c2ccncc2c(=O)c1C(=O)O` [Compound 7, 2-heptyl-4-oxo-1,4-dihydro-1,6-naphthyridine-3-carboxylic acid]: at PqsR, the inhibition at 0.05 µM is 6% and the inhibition at 5 µM was 20%.
`CCCCCCCc1[nH]c2ccccc2c(=O)c1C(=O)NO` [Compound 8]: in the data set with P. aeruginosa PA14 [8], the “Biofilm formation / biovolume of the biofilms” value is given as “strongly inhibited; also recorded: markedly reduced”. At PqsR, the inhibition at 0.05 µM was found to be 15% and the inhibition at 5 µM worked out at 29%. Moreover, the pIC50 in the data set with P. aeruginosa PA14 [7] (Pseudomonas aeruginosa, PA14, read-out: IC50, production of the virulence factor pyocyanin) was roughly 4.92. Also, the “Reduction of Pyocyanin” value in the data set on P. aeruginosa PA14 [7] (determined at 12.5 μM) is on record as 51^e %. Moreover, the “Biofilm formation / biovolume of the biofilms” value in the data set on clinical isolate MHH9639 is “strongly inhibited; also recorded: markedly reduced”.
For the molecule `CCCCCCCc1[nH]c2ccccc2c(=O)c1[N+](=O)[O-]` [Compound 9, 2-heptyl-3-nitroquinolin-4(1H)-one], on PqsR, the inhibition at 0.05 µM worked out at 14% and the inhibition at 5 µM was found to be 17%.
For the molecule `CCCCCCCc1[nH]c2ccc([N+](=O)[O-])cc2c(=O)c1C(=O)NO` [Compound 10, 2-heptyl-N-hydroxy-6-nitro-4-oxo-1,4-dihydroquinoline-3-carboxamide], on PqsR, the inhibition at 0.05 µM worked out at 30% and the inhibition at 5 µM came out at 78%. For the same molecule, in the data set on P. aeruginosa PA14 [7] (determined at 12.5 μM), the “Reduction of Pyocyanin” value is on record as 57^e %.
`CCCCCCCc1[nH]c2ccc([N+](=O)[O-])cc2c(=O)c1C(=O)O` [Compound 12, 2-heptyl-6-nitro-4-oxo-1,4-dihydroquinoline-3-carboxylic acid]: at PqsR, the inhibition at 0.05 µM is 11% and the inhibition at 5 µM amounted to 34%.
Consider `CCCCCCCc1cc(=O)c2cc(C(F)(F)F)ccc2n1C` [Ref. 1, 2-heptyl-1-methyl-6-(trifluoromethyl)quinolin-4(1H)-one, reference compound], for which, at PqsR, the inhibition at 0.05 µM was determined as 31% and the inhibition at 5 µM is 100%. In the data set on P. aeruginosa PA14 [6], the “Reduction of PQS” value was 8.9%. The “Reduction of Pyocyanin” value with P. aeruginosa PA14 [7] (compd. at 15 μM) came to 58%.
For `CCCCCOCc1cc(=O)c2cc(C(F)(F)F)ccc2[nH]1` [Ref. 4, 2-(Pentyloxymethyl)-6-(trifluoromethyl)quinolin-4(1H)-one, reference compound] the same measures were 29%, 100%, 21% and 29%.
Take `CCCCCCCc1cc(=O)c2cnccc2[nH]1` [Ref. 9, 2-Heptyl-1,6-naphthyridin-4(1H)-one, reference compound]: on PqsR, the inhibition at 0.05 µM was 8% and the inhibition at 5 µM is 2%.
For the molecule `COC(=O)c1ccccc1N` [methyl anthranilate], the “Production of the virulence factor elastase” value with Pseudomonas aeruginosa [9] was “inhibit”. The PQS formation result in the data set with P. aeruginosa PA14 [2] (at millimolar concentrations, ref. [12]) is on record as “inhibit PQS formation”.

Broadly, the pIC50 is −log10 of the IC50, conventionally taken in molar units. Broadly, the inhibition is the relative decrease from the control value, in per cent.
